Results published in patent publication US20130116323A1, “METHODS OF IMPROVING OR PRESERVING LUNG FUNCTION IN A PATIENT WITH A PULMONARY DISORDER” (The Leland Stanford Junior University, priority 2011, published 2013).
“Also recorded” adds a separate entry of the source.

Columns and labels:
[1] = tested on: CF patients; assay: Phase II randomized placebo-controlled trial of oral NAC in CF patients: lung function by spirometry; assay type: in vivo, human
Procedure: A 24-week (6-month) multi-center large clinical trial was designed with randomization stratified to improve balance of baseline characteristics between treatment groups, and to improve precision between group treatment effects.
(§1) A 6-month multi-center phase II clinical trial was performed to evaluate the effect of N-acetylcysteine (PharmaNAC®, BioAdvantex Pharma, Missisauga, Ontario Canada)) 900 mg effervescent tablets taken orally 3 times a day on airway inflammation in CF patients. 70 subjects were randomized to placebo or study drug. Randomization was stratified by study site, baseline FEV1, age, gender, chronic azithromycin, inhaled aztreonam for inhalation solution (AZLI) or tobramycin inhalation solution, USP (TOBI®, Novartis) and ibuprofen use. A cohort of 16 subjects served as an initial safety cohort.
General objectives of the study included determination of safety, tolerability and efficacy of NAC versus placebo at 0 week, 6 weeks, 12 week and 24 week time points. […]
(§2) The primary efficacy endpoint in this study were sputum elastase activity as measured by ELISA assay reflecting lung inflammation. […]
(§3) The effect of NAC on chronic airway inflammation was measured by examining the change in the log10 of neutrophil elastase activity measured in sputum from enrollment to the end of the trial. The effect of NAC on neutrophil recruitment, lung function, pulmonary and sinus exacerbations, and on weight of CF subjects was measured by: change in the sputum neutrophil count, change in IL-8 in sputum and plasma, change in GSH in whole blood, incidence of pulmonary exacerbations, number of and time to first pulmonary exacerbation, incidence and number of antibiotics for any reason, and change in FEV1. Patient-reported outcomes (PRO) were measured by the CFQ-R and CFRD instruments.

[2] = tested on: Human Neurophil Elastase (HNE); assay: Phase II trial in CF patients: sputum neutrophil elastase activity (airway inflammation); assay type: in vivo; details: 900 mg orally 3 times a day, 24 weeks, versus placebo
Procedure: A 6-month multi-center phase II clinical trial was performed to evaluate the effect of N-acetylcysteine (PharmaNAC®, BioAdvantex Pharma, Missisauga, Ontario Canada)) 900 mg effervescent tablets taken orally 3 times a day on airway inflammation in CF patients. 70 subjects were randomized to placebo or study drug. Randomization was stratified by study site, baseline FEV1, age, gender, chronic azithromycin, inhaled aztreonam for inhalation solution (AZLI) or tobramycin inhalation solution, USP (TOBI®, Novartis) and ibuprofen use. A cohort of 16 subjects served as an initial safety cohort. The primary efficacy endpoint in this study were sputum elastase activity as measured by ELISA assay reflecting lung inflammation. […] The effect of NAC on chronic airway inflammation was measured by examining the change in the log10 of neutrophil elastase activity measured in sputum from enrollment to the end of the trial. The effect of NAC on neutrophil recruitment, lung function, pulmonary and sinus exacerbations, and on weight of CF subjects was measured by: change in the sputum neutrophil count, change in IL-8 in sputum and plasma, change in GSH in whole blood, incidence of pulmonary exacerbations, number of and time to first pulmonary exacerbation, incidence and number of antibiotics for any reason, and change in FEV1. Patient-reported outcomes (PRO) were measured by the CFQ-R and CFRD instruments.

[3] = tested on: CF patients; assay: Phase II trial in CF patients: pulmonary and sinus exacerbations and new antibiotic use; assay type: in vivo, human; details: 900 mg orally 3 times a day, 24 weeks, versus placebo
Procedure: as §1, with “cohort. […]” for “cohort.”
as §2, §3

[4] = tested on: CF patients; assay: Phase II trial in CF patients: initial 16 subject safety cohort; assay type: in vivo, human; details: first 16 subject safety cohort
Procedure: as §1
General objectives of the study included determination of safety, tolerability and efficacy of NAC versus placebo at 0 week, 6 weeks, 12 week and 24 week time points. More specific objectives included evaluation of: (a) effect of NAC on number of pulmonary and sinus exacerbations and antibiotic use, (b) effect of NAC on lung inflammation; (c) effect of NAC on pulmonary function; (d) effect of NAC on weight; (e) effect of NAC on quality of life (QOL) and (f) whether NAC causes pulmonary hypertension if used chronically in high doses.
Effect of long-term treatment with NAC in promoting the development of pulmonary hypertension (PH) in subjects with cystic fibrosis is examined. A panel of clinical and molecular studies, performed at 6-week intervals, is assessed. […]

[5] = compared with cysteine; cited from earlier work
[6] = compared with the stable cysteine disulfide; cited from earlier work
[7] = tested on: patients with COPD; details: 600 mg oral NAC per day, COPD patients with at least two exacerbations per year for 2 years; cited from earlier work
[8] = tested on: ARDS and ALI; details: randomized controlled trials; cited from earlier work
[9] = tested on: patients with IPF; details: 600 mg NAC three times daily added to prednisone plus azothioprine, one year, versus standard therapy alone; cited from earlier work
[10] = effects counter to those reported for NAC; cited from earlier work
[11] = 900 mg orally 3 times a day, 6-month period, versus placebo

Structure (SMILES)	FEV1 (lung function) versus baseline ([1]; 900 mg effervescent tablets orally 3 times a day, 6-month trial period, versus placebo (P=0.02))	FEF (lung function) [1, 11]	FVC (lung function) [1, 11]	airways inflammation, measured by HNE [2]	new antibiotic prescriptions [3]	number of pulmonary or sinus exacerbations [3]	adverse events [4]	pulmonary hypertension [4]	stability relative to cysteine [5]	solubility relative to cystine [6]	preventing deterioration in lung function and exacerbations [7]	early mortality [8]	deterioration of DLCO [9]	deterioration of vital capacity [9]	bioactive dose relative to NAC [10]
CC(=O)N[C@@H](CS)C(=O)O [NAC, N-acetylcysteine]	maintained baseline FEV1; also recorded: maintained lung function	maintained lung function	maintained lung function	No difference was detected	No difference was detected	No difference was detected	No adverse events	no pulmonary hypertension	about 10 times	much more soluble	ineffective	no effect	slows the deterioration	slows the deterioration	
CC(=O)N[C@@H](CSSC[C@H](NC(C)=O)C(=O)O)C(=O)O [oxidized form of NAC, di-N-acetylcysteine]															10-100 fold less than NAC
